Results as given in US8252740B2, “Thermally-targeted delivery of medicaments including doxorubicin” (The University of Mississippi Medical Center, priority 2006, dated 2012).

Key:
Assay type in all cases: cell-based, human
MES-SA cells [1] = experiment: DIC microscopy of apoptotic cell morphology; details: 10 μM
Method: 1.9. Apoptosis Assays. For differential interference contrast (DIC) microscopy, MES-SA cells were plated onto 22 mm^2 coverslips at 50% confluence. Cells were treated as described above with the indicated protein, rinsed with PBS, and mounted onto glass slides. The unfixed cells were imaged immediately using a Zeiss Axiovert 200 DIC microscope with a 40× oil immersion objective and a Coolsnap HQ camera.
2.6. Induction of Apoptosis. […] This effect was documented by treating MES-SA cells adhered to glass cover slips with each construct and imaging them by DIC microscopy. Cells were treated for 1 h as described above, then immediately mounted on slides and imaged without fixation. […] Untreated cells were spread onto the glass, and morphological features such as nuclei and endocytic vesicles were readily visible. This morphology was not altered by simply exposing the cells to hyperthermia. […] However, such effects were minor and limited to a fraction of the cells. […] All cells examined were rounded with no discernable nucleus and fragmented chromosomes.

MES-SA cells [2] = experiment: Caspase activation, FLICA polycaspase assay with flow cytometry; details: 10 μM
Method: MES-SA cells were treated for 1 h at 37 or 42° C. with Tat-ELP-GFLG-DOX (SEQ ID NO: 3), the control construct lacking the Tat sequence, with free DOX. Cells were harvested after the 1 h exposure, and caspase activity was detected using a fluorescent caspase inhibitor (Immunochemistry Technologies, Bloomington, Minn.) and flow cytometry.
Caspase activation was measured using a carboxyfluorescein FLICA polycaspase assay (Immunochemistry Technologies, Bloomington, Minn.). Cells were treated as described above with the indicated protein, collected by trypsinization, and stained for 2 h at 37° C. with the carboxyfluorescein FLICA reagent as described by the manufacturer. Cells were rinsed twice and analyzed for caspase activation by flow cytometry using a Cytomics FC 500 flow cytometer (n=5,000 cells). Forward versus side scatter gating was used to eliminate cell debris from the analysis, and a histogram of fluorescein fluorescence (channel FL1) was bimodal with peaks for caspase positive and caspase negative cells. The percentage of caspase positive cells was determined from the histograms and expressed as an average of 3 experiments.
MES-SA cells were treated as described above, cells were harvested after the 1 h exposure, and caspase activity was detected using a fluorescent caspase inhibitor and flow cytometric analysis. […] Cell numbers under each peak were quantified and averaged to determine the percentage of the cell population in which caspases were activated under each treatment condition. […] In fact, the percent of caspase positive cells was enhanced almost 4 fold when cells were treated with Tat-ELP1-GFLG-Dox (SEQ ID NO: 3) at 42° C. versus 37° C. (p<0.05).

[3] = test system: MES-SA uterine sarcoma cells; experiment: Polypeptide uptake by flow cytometry of Dox fluorescence
Method: In order to test whether the induction of ELP aggregation with hyperthermia can enhance the cellular uptake of the polypeptide, MES-SA uterine sarcoma cells were incubated with Tat-ELP-GFLG-DOX (SEQ ID NO: 3) for 1 h at either 37 or 42° C. Cells were then analyzed by flow cytometry, using the natural DOX fluorescence to quantify the amount of drug in the cells. When treated with the ELP1 containing construct, which aggregates at 40° C., the amount of drug delivered to the cells increases almost 2-fold (FIG. 10). […] This illustrates that the enhanced uptake observed after hyperthermia is the result of the ELP phase transition, not nonspecific effects of hyperthermia.
1.6. Polypeptide Uptake. Cells were treated with 20 μM Tat-ELP1-GFLG-Dox (SEQ ID NO: 3), Tat-ELP2-GFLG-Dox (SEQ ID NO: 3), or control polypeptides lacking the Tat sequence as described above. Duplicate plates were treated for 1 h at 37° C. and 42° C. Cells were rinsed with PBS and harvested using nonenzymatic cell dissociation buffer (Invitrogen), centrifuged for 2 min, and resuspended in 0.5 ml PBS. Total uptake of the doxorubicin labeled polypeptides was measured using the intrinsic Dox fluorescence by a Cytomics FC 500 flow cytometer (Beckman Coulter, Fullerton, Calif.). Forward versus side scatter gating was used to remove cell debris from the analysis, and Dox fluorescence was measured using FL3. Each histogram was a unimodal peak (n=5000 cells), and the peak mean was normalized to propidium standard beads.
3.3. Cellular Uptake of ELP-delivered Doxorubicin. MES-SA uterine sarcoma cells were used in this study to evaluate the efficiency of ELP-mediated cellular delivery of doxorubicin. […] After harvesting the cells with non-enzymatic cell dissociation buffer to prevent degradation of polypeptide attached to the cell surface, the non-fixed cells were analyzed by flow cytometry to measure the Dox fluorescence. […] Cellular fluorescence was increased over 2 fold when the MES-SA cells were treated with Tat-ELP1-GFLG-Dox (SEQ ID NO: 3) at 42° C. rather than 37° C. […]

In the case of Tat-ELP1-GFLG-Dox, the “Cell morphology (hallmarks of apoptosis)” value (MES-SA cells [1]; 1 h at 37° C. (below the Tt)) is reported as “more extensive rounding and blebbing”, the “Cell morphology (hallmarks of apoptosis)” value (MES-SA cells [1]; 1 h at 42° C. (above the Tt)) is reported as “normal cell morphology was completely destroyed” and the “Enhancement of percent caspase positive cells at 42° C. versus 37° C.” value (MES-SA cells [2]; 1 h) is reported as about 4 fold. The “Caspase activation / apoptosis induction” value (MES-SA cells [2]; 1 h at 37° C.) was “slightly above control levels”, the “Caspase activation / apoptosis induction” value (MES-SA cells [2]; 1 h at 42° C.) was “significantly higher proportion of the population” and the “Increase of drug delivered to cells at 42° C. versus 37° C.” value ([3]; 10 μM, 1 h (FIG. 10)) was about 2 fold. The “Increase of cellular fluorescence at 42° C. versus 37° C.” value ([3]; 20 μM, 1 h) was “over 2 fold” and the “Uptake relative to ELP1-GFLG-Dox” value ([3]; 20 μM, 1 h, 42° C.) was 6 fold.
